Test results reported in paper PMC7274485, “A symbiotic bacterium of shipworms produces a compound with broad spectrum anti-apicomplexan activity” (PLoS Pathogens, 2020).
“Also recorded” adds a separate entry of the source.

Key:
[1] = test system: T. gondii ME49; experiment: Length of treatment needed to kill intracellular T. gondii (compound wash-off, luciferase 72 hours later); format: cell-based, Toxoplasma gondii; details: 30 nM trtE, ME49 in HFF, treated 0.5 to 4 hours, washed off, growth 72 hours after treatment
Method: To test this hypothesis, we infected HFF cells with luciferase-expressing T. gondii ME49 for 24 hours, then treated infected cells with trtE for 30 minutes to 4 hours. The compound was then washed off the infected cells, and parasite growth was quantified 3 days after the removal of the compound. Parasites treated for at least 2 hours were killed by trtE (Fig 2E).
T. gondii parasite lines were maintained by passage in HFFs as previously described. To determine the effect of trtE on intracellular parasites, 96 well plates containing confluent HFFs were infected with T. gondii strain ME49 modified to express green fluorescent protein (GFP) and luciferase (Luc), generated as described or T. gondii RH strain GFP/Luc (a kind gift from Dr. Jeroen Saeij, UC Davis). […] Growth was monitored by luciferase expression using Bright-glo Luciferase assay system (Promega Corp., Madison, WI). To determine the length of treatment needed to kill intracellular parasites, trtE was added to infected cells and then the compound removed 0.5, 1, 2 and 4 hours later by washing the monolayer three times with complete media. Infected cells were then incubated for 72 hours before growth was quantified by luciferase expression. For time-lapse images, HFFs were seeded into 35 mm glass bottom microwell dishes (MatTek Corporation, Ashland, MA). […]

[2] = test system: Sarcocystis neurona; experiment: Sarcocystis neurona GFP/Luc merozoite growth in bovine turbinate cells, luciferase expression; format: cell-based; details: 24 hours treatment, read-out: EC50 against S. neurona
Method: Culture of Sarcocystis neurona GFP/Luc merozoites in bovine turbinate cells and in vitro drug response assays were conducted as previously described.
A. Bovine turbinate cells infected with luciferase expressing Sarcocystis neurona merozoites were treated with trtE for 24 hours and parasite growth evaluated by luciferase expression. […] B. Theileria equi-infected erythrocytes were incubated with trtE or DMSO vehicle control and proliferation was measured after 72 hours by SYBR green incorporation. Percent proliferation was calculated relative to DMSO treated controls. […] (DOCX) Click here for additional data file.

[3] = test system: C. parvum; experiment: Immunofluorescence assay (anti-gp15) of C. parvum-infected HCT8 cells; format: cell-based, Cryptosporidium parvum; details: 60 nM trtE, 12 hours, HCT8 cells infected 8 hours
Method: We had postulated that secondary metabolites generated by symbiotic bacteria of invertebrates might include compounds that target gregarines, an ancient group of apicomplexans found in most, and perhaps all, invertebrates. The only gregarines known to infect mammals are Cryptosporidium species, gastrointestinal parasites that cause diarrheal disease in humans and other mammals. HCT8 cells were infected with luciferase-expressing Cryptosporidium parvum parasites for 24 hours, then two-fold dilutions of trtE added to the infected cells. 48 hours after the addition of trtE, parasite growth was quantified by luciferase expression. […]
For all IFAs, the investigator reading the slides and collecting images was blind to the sample treatment. […] 24 hours post treatment, infected cells were fixed with methanol, and parasites detected with rabbit anti-SAG1 antibody for T. gondii or rabbit anti-gp15 for C. parvum as we have described previously. […] This CE11 line is transiently transfected with a plasmid that expresses nanoluciferase from a B. divergens promoter and green fluorescence protein-blasticidin (gfp-bsd) from the selection cassette. […] Mean background levels were determined for individual images by assaying areas lacking cells, and the values were subtracted, whereas maximum fluorescent values were individually set as the upper limit. […]

Structure (SMILES): CC1CCC=CC=CCCC(O)CC(=O)CC2CCC(C)C3(O2)O[B-]24OC(C(=O)O1)C1(OC(CCC1C)CC(=O)CC(O)CCC=CC=CCCC(C)OC(=O)C3O2)O4 (stereo not drawn) [trtE, tartrolon E]
- Length of trtE treatment after which parasites were killed [1]: kills the parasites after two hours of treatment
- EC50 [2]: 12.9 nM
- Morphology of trtE treated C. parvum (IFA) [3]: no visible intact merozoites; also recorded: few discernable parasites
